Laboratory results reported in article doi:10.1101/2024.08.19.608619, “Discovery of potent SARS-CoV-2 nsp3 macrodomain inhibitors uncovers lack of translation to cellular antiviral response” (bioRxiv, 2024).
Read-outs that look alike come from different tables or passages of the source.

Tests used:
SARS-CoV-2 nsp3-mac1 [1] = molecular target: T1, SARS-CoV-2 nsp3-mac1 (Severe acute respiratory syndrome coronavirus 2, UniProt P0DTD1); assay: biochemical; assay type: biochemical; conditions: SARS-CoV-2 nsp3 macrodomain TR-FRET single point
SARS-CoV-2 nsp3-mac1 [2] = molecular target: T1, SARS-CoV-2 nsp3-mac1; assay: biochemical; parameters: SARS-CoV-2 nsp3 macrodomain TR-FRET single point, per cent inhibition, n=2
[3] = read-out: perc_inhibition_mean, batch_name=ASAP-0000300-001
[4] = read-out: perc_inhibition_mean, batch_name=ASAP-0000303-001
[5] = read-out: perc_inhibition_mean, batch_name=ASAP-0000333-001
[6] = read-out: perc_inhibition_mean, batch_name=ASAP-0000406-001
[7] = read-out: perc_inhibition_mean, batch_name=ASAP-0000320-001
[8] = read-out: perc_inhibition_mean, batch_name=ASAP-0000395-001
[9] = read-out: perc_inhibition_mean, batch_name=ASAP-0000200-002
[10] = read-out: perc_inhibition_mean, batch_name=ASAP-0000353-001

Q: Cc1n[nH]cc1CN(C)C(=O)c1ccc(NC(=O)Nc2ccccc2)cc1 [ASAP-0000300] was tested. Which perc_inhibition_mean (SARS-CoV-2 nsp3-mac1 [1]; concentration 49.75 uM, n=2) did it give?
A: -3.77%

Q: What about the perc_inhibition_mean (SARS-CoV-2 nsp3-mac1 [1]; concentration 99.5 uM, n=2) of the same compound?
A: -0.031%

Q: And the inhibition at 49.75 µM (SARS-CoV-2 nsp3-mac1 [2]; [3])?
A: -3.77%

Q: And the inhibition at 99.5 µM (SARS-CoV-2 nsp3-mac1 [2]; [3])?
A: -0.031%

Q: Which results are given for O=C(Nc1ccccc1)Nc1ccc(C(=O)N2CCn3nccc3C2)cc1 [ASAP-0000303]?
A: perc_inhibition_mean (SARS-CoV-2 nsp3-mac1 [1]; concentration 49.75 uM, n=2): -3.111%; perc_inhibition_mean (SARS-CoV-2 nsp3-mac1 [1]; concentration 99.5 uM, n=2): 2.299%; inhibition at 49.75 µM (SARS-CoV-2 nsp3-mac1 [2]; [4]): -3.11%; inhibition at 99.5 µM (SARS-CoV-2 nsp3-mac1 [2]; [4]): 2.3%

Q: Which perc_inhibition_mean (SARS-CoV-2 nsp3-mac1 [1]; concentration 50.0 uM) does the source give for O=C(Nc1ccc(O)cc1)Nc1ccc(Oc2ccccc2)cc1 [ASAP-0000069] here?
A: -3.306%

Q: And the inhibition at 50 µM (SARS-CoV-2 nsp3-mac1 [2]; read-out: perc_inhibition_mean, batch_name=ASAP-0000069-001)?
A: -3.31%

Q: How did the perc_inhibition_mean (SARS-CoV-2 nsp3-mac1 [1]; concentration 49.75 uM, n=2) turn out when Cn1nncc1C(=O)N(CCC(=O)N1CCNCC1)Cc1cccc(Cl)c1 [ASAP-0000333] was run?
A: 0.447%

Q: And the perc_inhibition_mean (SARS-CoV-2 nsp3-mac1 [1]; concentration 99.5 uM, n=2)?
A: -2.15%

Q: What about the inhibition at 49.75 µM (SARS-CoV-2 nsp3-mac1 [2]; [5]) of the same compound?
A: 0.447%

Q: What about the inhibition at 99.5 µM (SARS-CoV-2 nsp3-mac1 [2]; [5]) of the same compound?
A: -2.15%

Q: Which results are given for CCO[C@@H]1C[C@@H](Nc2ncnc3[nH]ccc23)C12CCOCC2 [ASAP-0000093]?
A: perc_inhibition_mean (SARS-CoV-2 nsp3-mac1 [1]; concentration 50.0 uM): 2.316%; inhibition at 50 µM (SARS-CoV-2 nsp3-mac1 [2]; read-out: perc_inhibition_mean, batch_name=ASAP-0000093-001): 2.32%

Q: With CCN1CCN(C(=O)c2cnn3ccc(C4CCN(C(=O)c5ccccc5)CC4)cc23)CC1=O [ASAP-0000406] as the compound, how does the perc_inhibition_mean (SARS-CoV-2 nsp3-mac1 [1]; concentration 49.75 uM) read?
A: -8.634%

Q: What about the perc_inhibition_mean (SARS-CoV-2 nsp3-mac1 [1]; concentration 99.5 uM) of the same compound?
A: -3.464%

Q: And the inhibition at 49.75 µM (SARS-CoV-2 nsp3-mac1 [2]; [6])?
A: -8.63%

Q: What about the inhibition at 99.5 µM (SARS-CoV-2 nsp3-mac1 [2]; [6]) of the same compound?
A: -3.46%

Q: What does the source list for CN(CCOc1ccccc1)c1ncnc2[nH]ccc12 [ASAP-0000026]?
A: perc_inhibition_mean (SARS-CoV-2 nsp3-mac1 [1]; concentration 50.0 uM): -2.258%; inhibition at 50 µM (SARS-CoV-2 nsp3-mac1 [2]; read-out: perc_inhibition_mean, batch_name=ASAP-0000026-001): -2.26%

Q: CC(C)(C[C@@H]1CCCN(c2ncnc3[nH]ccc23)C1)C(N)=O [ASAP-0000077] was tested. Which perc_inhibition_mean (SARS-CoV-2 nsp3-mac1 [1]; concentration 50.0 uM) did it give?
A: -1.586%

Q: What about the inhibition at 50 µM (SARS-CoV-2 nsp3-mac1 [2]; read-out: perc_inhibition_mean, batch_name=ASAP-0000077-001) of the same compound?
A: -1.59%

Q: With COCc1cc(CNc2nc3[nH]cnc3c(=O)[nH]2)on1 [ASAP-0000117] as the compound, how does the perc_inhibition_mean (SARS-CoV-2 nsp3-mac1 [1]; concentration 50.0 uM) read?
A: 2.984%

Q: What about the inhibition at 50 µM (SARS-CoV-2 nsp3-mac1 [2]; read-out: perc_inhibition_mean, batch_name=ASAP-0000117-001) of the same compound?
A: 2.98%

Q: For Fc1ccc(F)c(Sc2ncnc3[nH]ccc23)c1 [ASAP-0000049], which perc_inhibition_mean (SARS-CoV-2 nsp3-mac1 [1]; concentration 50.0 uM) is on record?
A: -1.149%

Q: And the inhibition at 50 µM (SARS-CoV-2 nsp3-mac1 [2]; read-out: perc_inhibition_mean, batch_name=ASAP-0000049-001)?
A: -1.15%

Q: Cn1c(C(=O)NCCNC(=O)c2ccco2)cc2c(=O)n3ccccc3nc21 [ASAP-0000126] was tested. Which perc_inhibition_mean (SARS-CoV-2 nsp3-mac1 [1]; concentration 50.0 uM) did it give?
A: -4.472%

Q: And the inhibition at 50 µM (SARS-CoV-2 nsp3-mac1 [2]; read-out: perc_inhibition_mean, batch_name=ASAP-0000126-001)?
A: -4.47%

Q: Which results are given for Cc1[nH]c2ncnc(NC(=O)C3CCC(F)(F)CC3)c2c1C [ASAP-0000020]?
A: perc_inhibition_mean (SARS-CoV-2 nsp3-mac1 [1]; concentration 50.0 uM): 2.148%; inhibition at 50 µM (SARS-CoV-2 nsp3-mac1 [2]; read-out: perc_inhibition_mean, batch_name=ASAP-0000020-001): 2.15%

Q: CCn1cc(CNC(=O)c2ccc(NC(=O)Nc3ccccc3)cc2)cn1 [ASAP-0000320] was tested. Which perc_inhibition_mean (SARS-CoV-2 nsp3-mac1 [1]; concentration 49.75 uM, n=2) did it give?
A: -1.76%

Q: And the perc_inhibition_mean (SARS-CoV-2 nsp3-mac1 [1]; concentration 99.5 uM, n=2)?
A: 3.797%

Q: What about the inhibition at 49.75 µM (SARS-CoV-2 nsp3-mac1 [2]; [7]) of the same compound?
A: -1.76%

Q: And the inhibition at 99.5 µM (SARS-CoV-2 nsp3-mac1 [2]; [7])?
A: 3.8%

Q: How did the perc_inhibition_mean (SARS-CoV-2 nsp3-mac1 [1]; concentration 50.0 uM) turn out when OC[C@@H]1CN(c2ncnc3nc[nH]c23)CCC1(F)F [ASAP-0000045] was run?
A: 1.75%

Q: And the inhibition at 50 µM (SARS-CoV-2 nsp3-mac1 [2]; read-out: perc_inhibition_mean, batch_name=ASAP-0000045-001)?
A: 1.75%

Q: For Cc1[nH]nc(C(=O)N2CCC(c3ccn4ncc(C(=O)N5CCCCC5)c4c3)CC2)c1C [ASAP-0000395], which perc_inhibition_mean (SARS-CoV-2 nsp3-mac1 [1]; concentration 49.75 uM) is on record?
A: 18.038%

Q: And the perc_inhibition_mean (SARS-CoV-2 nsp3-mac1 [1]; concentration 99.5 uM)?
A: 33.801%

Q: What about the inhibition at 49.75 µM (SARS-CoV-2 nsp3-mac1 [2]; [8]) of the same compound?
A: 18%

Q: What about the inhibition at 99.5 µM (SARS-CoV-2 nsp3-mac1 [2]; [8]) of the same compound?
A: 33.8%

Q: With COCc1nc(CNc2c(C#N)c(C)nn2C)cs1 [ASAP-0000089] as the compound, how does the perc_inhibition_mean (SARS-CoV-2 nsp3-mac1 [1]; concentration 50.0 uM) read?
A: 0.8%

Q: And the inhibition at 50 µM (SARS-CoV-2 nsp3-mac1 [2]; read-out: perc_inhibition_mean, batch_name=ASAP-0000089-001)?
A: 0.8%

Q: With Cc1[nH]c2ncnc(NC(=O)c3ncn(-c4ccccc4)n3)c2c1C [ASAP-0000027] as the compound, how does the perc_inhibition_mean (SARS-CoV-2 nsp3-mac1 [1]; concentration 50.0 uM) read?
A: 7.104%

Q: What about the inhibition at 50 µM (SARS-CoV-2 nsp3-mac1 [2]; read-out: perc_inhibition_mean, batch_name=ASAP-0000027-001) of the same compound?
A: 7.1%

Q: For Cc1cc(C(F)(F)F)nn1CCNc1ncnc2[nH]ccc12 [ASAP-0000200], which perc_inhibition_mean (SARS-CoV-2 nsp3-mac1 [1]; concentration 50.0 uM) is on record?
A: 4.602%

Q: What about the perc_inhibition_mean (SARS-CoV-2 nsp3-mac1 [1]; concentration 50.0 uM, n=2) of the same compound?
A: -3.037%

Q: And the perc_inhibition_mean (SARS-CoV-2 nsp3-mac1 [1]; concentration 100.0 uM, n=2)?
A: -2.206%

Q: And the inhibition at 50 µM (SARS-CoV-2 nsp3-mac1 [2]; read-out: perc_inhibition_mean, batch_name=ASAP-0000200-001)?
A: 4.6%

Q: What about the inhibition at 50 µM (SARS-CoV-2 nsp3-mac1 [2]; [9]) of the same compound?
A: -3.04%

Q: What about the inhibition at 100 µM (SARS-CoV-2 nsp3-mac1 [2]; [9]) of the same compound?
A: -2.21%

Q: For O=C(NC[C@@H]1CCCCN1)c1cnn2ccc(C3CCN(C(=O)c4ccccc4)CC3)cc12 [ASAP-0000353], which perc_inhibition_mean (SARS-CoV-2 nsp3-mac1 [1]; concentration 49.75 uM) is on record?
A: -5.92%

Q: What about the perc_inhibition_mean (SARS-CoV-2 nsp3-mac1 [1]; concentration 99.5 uM) of the same compound?
A: -2.573%

Q: What about the inhibition at 49.75 µM (SARS-CoV-2 nsp3-mac1 [2]; [10]) of the same compound?
A: -5.92%

Q: What about the inhibition at 99.5 µM (SARS-CoV-2 nsp3-mac1 [2]; [10]) of the same compound?
A: -2.57%
